Test results: US20090238808A1, “Process for the identification of novel enzyme interacting compounds” (priority 2005, published 2009)
pIC50: −log10 of the molar value.

Tests used:
protein kinase C alpha = target: T1, protein kinase C alpha (Homo sapiens, UniProt P17252); test: In-lysate competition binding with kinobeads, Jurkat lysate, iTRAQ MS; details: for Relative Intensity, PKCa (PRKCA): DMSO control = 1.0
T1 construct: Aliqots of Jurkat lysate (10 mg protein) were incubated with different Bis VIII concentrations; endogenous in cells; host or cells: Jurkat clone E6-1 lysate
Method: (§1) This example illustrates competition binding in cell lysates (see particularly the third aspect of the invention). A test compound, Bisindolylmaleimide VIII (Bis VIII, a well known kinase inhibitor; Davies et al., 2000. Specificity and mechanism of action of some commonly used protein kinase inhibitors. Biochemical Journal 351 (Pt 1): 95-105) was added to a cell lysate thereby allowing the test compound to bind to the target proteins in the lysate. Then the lysate was contacted with the kinobeads affinity matrix to capture remaining free target proteins. The proteins bound to the kinobeads matrix were then eluted with detergent-containing buffer, separated on a SDS-polyacryamide gel and analyzed by immunodetection (Western blots) or mass spectrometry detection.
(§2) For the quantitative detection of proteins by mass spectrometry proteins were eluted from the affinity matrix and subsequently separated by SDS-Polyacrylamide gel elecrophoresis. Suitable gel areas were cut out and subjected to in-gel proteolytic digestion with trypsin.
(§3) Four tryptic digest samples (corresponding to three different Bis VIII concentrations in the lysate and one DMSO control) were labeled with ITRAQ reagents and the combined samples were analyzed in a single LC-MS/MS mass spectrometry analysis followed by peak quantification in the MS/MS spectrum (Ross et al., 2004. Multiplexed protein quantitation in Saccharomyces cerevisiae using amine-reactive isobaric tagging reagents. Mol. Cell. Proteomics 3(12): 1154-1169). […] Binding curves for individual kinases are shown (FIG. 5). The relative intensity 50 (RI50) values representing the affinity of kinase-compound pairs are similar to IC50 values reported by kinase enzyme assays (Davies et al., 2000. Specificity and mechanism of action of some commonly used protein kinase inhibitors. Biochemical Journal 351 (Pt 1): 95-105).
(§4) Aliqots of Jurkat lysate (10 mg protein) were incubated with different Bis VIII concentrations for one hour at 4° C. (0.025 μM, 0.074 μM, 0.22 μM, 0.67 μM, 2.0 μM and 6.0 μM final concentration of Bis VIII). To this end Bis VIII solutions were prepared in 100% DMSO as solvent that corresponded to 200 fold desired final Bis VIII concentration (Bis VIII from Alexis Biochemicals cat. number ALX 270-056). Five μl of these solutions were added to 1 ml of lysate resulting in the indicated final concentrations. For a control experiment 5 μl of DMSO without Bis VIII were used.
(§5) To each preincubated lysate sample 40 μl of kinobeads (see example 1) were added and incubated for one hour at 4° C. During the incubation the tubes were rotated on an end-over-end shaker (Roto Shake Genie, Scientific Industries Inc.). Beads were collected by centrifugation, transfered to Mobicol-columns (MoBiTech 10055) and washed with 10 ml 1×DP buffer containing 0.4% NP40 detergent, followed by a wash with 5 ml 1×DP buffer with 0.2% NP40. To elute the bound proteins, 100 μl 2×SDS sample buffer was added, the column was heated for 30 minutes at 50° C. and the eluate was transferred to a microfuge tube by centrifugation. Proteins were then separated by SDS-Polyacrylamide electrophoresis (SDS-PAGE). The composition and preparation of buffers is described in example 2.
(§6) The peptide extracts of samples treated with different concentrations of the test compound (0.074 μM, 0.22 μM and 0.67 μM Bis VIII) and the solvent control (0.5% DMSO) were treated with different isomers of the isobaric tagging reagent (iTRAQ Reagents Multiplex Kit, part number 4352135, Applied Biosystems, Foster City, Calif., USA). The iTRAQ reagents are a set of multiplexed, amine-specific, stable isotope reagents that can label all peptides in up to four different biological samples enabling simultaneous identification and quantitation of peptides. The iTRAQ reagents were used according to instructions provided by the manufacturer. […]

protein kinase C beta = protein kinase C beta (Homo sapiens, UniProt P05771); test: as above; details: for Relative Intensity, PKCb (PRKCB1): DMSO control = 1.0
Method: as §1, §2, §3, §4, §5, §6

[1] = target: T2, Glycogen Synthase Kinase 3 alpha (Homo sapiens, UniProt P49840); test: as above; details: for Relative Intensity, GSK3A: DMSO control = 1.0
T2 construct: endogenous in cells; host or cells: Jurkat clone E6-1 lysate
Method: as §1, §2, §3, §4, §5, §6

[2] = target: T3, Glycogen Synthase Kinase 3 beta (Homo sapiens, UniProt P49841); test: as above; details: for Relative Intensity, GSK3B: DMSO control = 1.0
T3 construct: Aliqots of Jurkat lysate (10 mg protein) were incubated with different Bis VIII concentrations; endogenous in cells; host or cells: Jurkat clone E6-1 lysate
Method: as §1, §2, §3, §4, §5, §6

ITK = target: T4, ITK (Homo sapiens, UniProt Q08881); test: In-lysate competition binding with kinobeads, Jurkat lysate, Western blot; details: Jurkat lysate preincubated with 0.025-6.0 μM compound
T4 construct: Aliqots of Jurkat lysate (10 mg protein) were incubated with different Bis VIII concentrations; endogenous in cells; host or cells: Jurkat clone E6-1 lysate
Method: as §1
(§7) For Western blot analysis proteins bound to the affinity matrix were eluted from the affinity matrix and subsequently separated by SDS-Polyacrylamide gel elecrophoresis and transferred to a blotting membrane. Individual kinases were detected with specific antibodies against GSK3alpha, GSK3beta and ITK (FIG. 4A). […] For GSK3beta the signal was quantified and plotted against the Bis VIII concentration added to the cell lysate (FIG. 4B).
as §4
(§8) To each preincubated lysate sample 40 μl of kinobeads (see example 1) were added and incubated for one hour at 4° C. During the incubation the tubes were rotated on an end-over-end shaker (Roto Shake Genie, Scientific Industries Inc.). […]

GSK3beta = target: T5, GSK3beta (Homo sapiens, UniProt P49841); test: as above; details: Jurkat lysate preincubated with 0.025-6.0 μM compound
T5 construct: Aliqots of Jurkat lysate (10 mg protein) were incubated with different Bis VIII concentrations; endogenous in cells; host or cells: Jurkat clone E6-1 lysate
Method: as §1, §7, §4, §8

GSK3alpha = target: T6, GSK3alpha (Homo sapiens, UniProt P49840); test: as above; details: Jurkat lysate preincubated with 0.025-6.0 μM compound
T6 construct: Aliqots of Jurkat lysate (10 mg protein) were incubated with different Bis VIII concentrations; endogenous in cells; host or cells: Jurkat clone E6-1 lysate
Method: as §1, §7, §4, §8

T2 sequence (P49840 whole entry): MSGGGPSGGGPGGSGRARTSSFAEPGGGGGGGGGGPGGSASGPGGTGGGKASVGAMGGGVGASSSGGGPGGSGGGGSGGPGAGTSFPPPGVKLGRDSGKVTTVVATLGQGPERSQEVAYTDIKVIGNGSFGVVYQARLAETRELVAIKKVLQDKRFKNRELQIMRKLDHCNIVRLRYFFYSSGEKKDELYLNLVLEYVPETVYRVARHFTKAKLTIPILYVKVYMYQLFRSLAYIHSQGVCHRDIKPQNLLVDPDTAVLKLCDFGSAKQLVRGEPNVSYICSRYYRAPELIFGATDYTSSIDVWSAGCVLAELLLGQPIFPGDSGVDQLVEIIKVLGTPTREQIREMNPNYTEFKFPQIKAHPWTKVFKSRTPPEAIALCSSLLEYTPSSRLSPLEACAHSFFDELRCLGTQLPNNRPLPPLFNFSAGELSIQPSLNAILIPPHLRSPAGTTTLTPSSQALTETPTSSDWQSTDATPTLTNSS
Sequence of protein kinase C beta (P05771 whole entry): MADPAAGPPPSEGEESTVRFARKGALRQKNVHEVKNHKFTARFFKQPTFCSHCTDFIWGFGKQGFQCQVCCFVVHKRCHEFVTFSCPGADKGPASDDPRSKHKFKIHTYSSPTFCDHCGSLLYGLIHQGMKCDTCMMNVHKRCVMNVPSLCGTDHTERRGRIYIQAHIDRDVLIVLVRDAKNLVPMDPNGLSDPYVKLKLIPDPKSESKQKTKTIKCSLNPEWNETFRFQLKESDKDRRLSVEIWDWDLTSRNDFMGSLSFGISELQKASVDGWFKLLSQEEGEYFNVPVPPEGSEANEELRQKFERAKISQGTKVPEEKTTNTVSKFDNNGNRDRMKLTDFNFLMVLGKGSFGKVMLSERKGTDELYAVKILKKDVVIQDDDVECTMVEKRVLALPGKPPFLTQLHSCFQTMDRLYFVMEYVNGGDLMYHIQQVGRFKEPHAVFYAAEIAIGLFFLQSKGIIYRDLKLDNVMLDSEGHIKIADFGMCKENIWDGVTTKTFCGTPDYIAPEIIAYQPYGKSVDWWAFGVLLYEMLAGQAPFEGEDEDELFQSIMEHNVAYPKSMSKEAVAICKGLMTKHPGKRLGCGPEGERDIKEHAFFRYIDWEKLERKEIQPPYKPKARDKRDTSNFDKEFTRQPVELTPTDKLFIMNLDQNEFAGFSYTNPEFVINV
T3 sequence (P49841 whole entry): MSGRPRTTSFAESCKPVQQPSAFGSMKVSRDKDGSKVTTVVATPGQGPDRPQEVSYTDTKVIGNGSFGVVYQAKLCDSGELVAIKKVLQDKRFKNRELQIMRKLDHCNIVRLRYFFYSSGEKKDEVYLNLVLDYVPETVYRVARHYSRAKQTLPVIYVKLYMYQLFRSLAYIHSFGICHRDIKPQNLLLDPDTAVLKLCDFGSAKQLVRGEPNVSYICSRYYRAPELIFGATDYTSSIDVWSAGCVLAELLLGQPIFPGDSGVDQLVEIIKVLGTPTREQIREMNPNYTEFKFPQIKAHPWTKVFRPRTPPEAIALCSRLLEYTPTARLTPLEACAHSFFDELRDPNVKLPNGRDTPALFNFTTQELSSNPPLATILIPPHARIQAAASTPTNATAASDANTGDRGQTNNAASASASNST
T6 sequence (P49840 whole entry): as the sequence (P49840 whole entry) above
T4 sequence (Q08881 whole entry): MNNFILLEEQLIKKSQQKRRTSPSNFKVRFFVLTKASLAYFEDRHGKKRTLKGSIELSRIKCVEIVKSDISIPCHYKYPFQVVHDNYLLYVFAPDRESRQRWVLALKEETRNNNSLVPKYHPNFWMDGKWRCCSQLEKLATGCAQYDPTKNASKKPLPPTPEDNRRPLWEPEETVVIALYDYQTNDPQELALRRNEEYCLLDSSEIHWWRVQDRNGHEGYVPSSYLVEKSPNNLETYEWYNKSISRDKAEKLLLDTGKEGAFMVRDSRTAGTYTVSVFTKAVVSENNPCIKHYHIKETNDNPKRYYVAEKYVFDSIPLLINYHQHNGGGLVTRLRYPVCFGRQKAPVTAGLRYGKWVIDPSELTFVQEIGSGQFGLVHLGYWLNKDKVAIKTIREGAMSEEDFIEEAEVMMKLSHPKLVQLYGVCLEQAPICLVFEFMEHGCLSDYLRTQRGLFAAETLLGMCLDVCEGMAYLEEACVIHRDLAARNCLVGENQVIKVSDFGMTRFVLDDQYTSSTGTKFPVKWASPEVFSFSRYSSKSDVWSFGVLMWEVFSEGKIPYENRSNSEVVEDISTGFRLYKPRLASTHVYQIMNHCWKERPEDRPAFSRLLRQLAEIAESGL
T5 sequence (P49841 whole entry): as the sequence (P49841 whole entry) above

With Cn1cc(C2=C(c3cn(CCCN)c4ccccc34)C(=O)NC2=O)c2ccccc21 [Bis VIII, Bisindolylmaleimide VIII] as the molecule, how does the “Relative Intensity, PKCa (PRKCA)” value (protein kinase C alpha; 0.074 uM in lysate) read?
Its value is 0.25.

And the “Relative Intensity, PKCa (PRKCA)” value (protein kinase C alpha; 0.67 uM in lysate)?
Its value is 0.18.

What about the pIC50 (protein kinase C alpha; Jurkat cell lysate, concentration at which relative intensity of the MS signal is 50% of DMSO control, read-out: RI50 (PKCa)) of the same molecule?
Its pIC50 is 7.91.

What about the “Relative Intensity, PKCb (PRKCB1)” value (protein kinase C beta; 0.074 uM in lysate) of the same molecule?
Its value is 0.29.

And the “Relative Intensity, PKCb (PRKCB1)” value (protein kinase C beta; 0.67 uM in lysate)?
The value was 0.17.

What about the pIC50 (protein kinase C beta; Jurkat cell lysate, concentration at which relative intensity of the MS signal is 50% of DMSO control, read-out: RI50 (PKCb)) of the same molecule?
Its pIC50 is 7.67.

What about the “Relative Intensity, GSK3A” value ([1]; 0.074 uM in lysate) of the same molecule?
Its value is 0.50.

What about the “Relative Intensity, GSK3A” value ([1]; 0.67 uM in lysate) of the same molecule?
The value was 0.20.

What about the pIC50 ([1]; Jurkat cell lysate, concentration at which relative intensity of the MS signal is 50% of DMSO control, read-out: RI50 (GSKa)) of the same molecule?
Its pIC50 is 7.14.

What about the “Relative Intensity, GSK3B” value ([2]; 0.074 uM in lysate) of the same molecule?
The value was 0.54.

What about the “Relative Intensity, GSK3B” value ([2]; 0.67 uM in lysate) of the same molecule?
Its value is 0.28.

What about the pIC50 ([2]; Jurkat cell lysate, concentration at which relative intensity of the MS signal is 50% of DMSO control, read-out: RI50 (GSKb)) of the same molecule?
The pIC50 was 7.02.

What about the “binding of ITK to kinobeads, Western blot” value (ITK) of the same molecule?
The value was “not binding of ITK”.

What about the “binding of GSK3beta to kinobeads, Western blot” value (GSK3beta) of the same molecule?
The value was “prevented binding”.

And the “binding of GSK3alpha to kinobeads, Western blot” value (GSK3alpha)?
The value was “prevented binding”.
